Legend:
[1] = molecular target: T1, Thal (tryptophan 6-halogenase) (Streptomyces albogriseolus, UniProt A1E280); assay: X-ray crystal structure, […] Å; format: binding; conditions: apo crystals soaked with FAD and Trp for 7 days, 25 °C
T1 construct: recombinant, E. coli BL21(DE3), pET28b; tag residues seen in 7CU1; two protomers per asymmetric unit; GFP11 C-terminal tag only in the mutant library screen

[2] = molecular target: T2, Thal (tryptophan 6-halogenase) (Streptomyces albogriseolus, UniProt A1E280, K79T); assay: stopped-flow absorbance at […] and […] nm, C4a-hydroperoxyflavin formation; format: biochemical; conditions: 30 μM enzyme, 15 μM FADH-, air-saturated buffer; 20 mM potassium phosphate pH 7.2, 25 °C
T2 construct: recombinant, E. coli BL21(DE3), pET28b; tag residues seen in 7CU1; two protomers per asymmetric unit; GFP11 C-terminal tag only in the mutant library screen
T2 sequence (A1E280 whole entry K79T): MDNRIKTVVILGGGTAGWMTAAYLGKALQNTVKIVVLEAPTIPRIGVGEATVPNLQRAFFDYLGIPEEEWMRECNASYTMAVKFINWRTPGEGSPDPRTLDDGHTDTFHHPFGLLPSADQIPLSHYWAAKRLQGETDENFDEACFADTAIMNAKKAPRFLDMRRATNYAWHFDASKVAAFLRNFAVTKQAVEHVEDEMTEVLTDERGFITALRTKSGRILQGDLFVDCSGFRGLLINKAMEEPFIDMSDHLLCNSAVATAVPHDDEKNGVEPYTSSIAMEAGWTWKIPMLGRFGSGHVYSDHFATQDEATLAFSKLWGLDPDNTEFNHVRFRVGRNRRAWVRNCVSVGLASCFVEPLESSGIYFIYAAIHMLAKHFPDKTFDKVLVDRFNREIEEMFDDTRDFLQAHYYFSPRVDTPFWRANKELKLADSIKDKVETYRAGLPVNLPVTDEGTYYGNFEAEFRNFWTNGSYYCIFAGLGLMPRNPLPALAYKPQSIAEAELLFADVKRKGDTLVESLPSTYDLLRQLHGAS

[3] = molecular target: T1, Thal (tryptophan 6-halogenase); assay: X-ray crystal structure, […] Å; format: binding; conditions: crystal soak with FAD, tryptophan and dithionite; flavin site
[4] = molecular target: T1, Thal (tryptophan 6-halogenase); assay: stopped-flow fluorescence, kobs of C4a-hydroxyflavin formation versus halide; format: biochemical; conditions: binding to the C4a-hydroperoxyflavin form of the enzyme; two-step model; 20 mM potassium phosphate pH 7.2, 25 °C
From the text: stopped-flow fluorescence, kobs of C4a-hydroxyflavin formation versus halide on Thal (tryptophan 6-halogenase)

[5] = molecular target: T3, PyrH (tryptophan 5-halogenase) (Streptomyces rugosporus, UniProt A4D0H5); assay: stopped-flow fluorescence, C4a-hydroxyflavin formation; format: biochemical; conditions: with C4a-hydroperoxyflavin enzyme; pH 7.2, 25 °C
T3 construct: construct and source details not given
T3 sequence (A4D0H5 whole entry): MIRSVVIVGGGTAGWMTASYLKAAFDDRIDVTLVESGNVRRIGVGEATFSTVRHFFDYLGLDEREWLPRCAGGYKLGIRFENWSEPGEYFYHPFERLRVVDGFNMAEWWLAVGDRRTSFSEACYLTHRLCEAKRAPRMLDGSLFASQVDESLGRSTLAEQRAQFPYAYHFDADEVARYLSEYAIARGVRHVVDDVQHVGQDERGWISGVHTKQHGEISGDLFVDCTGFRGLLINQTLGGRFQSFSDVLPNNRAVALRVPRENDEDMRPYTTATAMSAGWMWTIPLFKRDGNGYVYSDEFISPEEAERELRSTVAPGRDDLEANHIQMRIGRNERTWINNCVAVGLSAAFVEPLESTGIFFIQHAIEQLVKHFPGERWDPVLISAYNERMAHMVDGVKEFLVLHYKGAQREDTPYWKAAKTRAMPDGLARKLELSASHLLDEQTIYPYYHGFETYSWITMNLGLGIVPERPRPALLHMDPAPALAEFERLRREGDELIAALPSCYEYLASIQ

[6] = molecular target: T4, PrnA (tryptophan 7-halogenase) (Pseudomonas fluorescens, UniProt P95480); assay: as above; format: biochemical; conditions: with C4a-hydroperoxyflavin enzyme; pH 7.2, 25 °C
T4 construct: construct and source details not given
T4 sequence (P95480 whole entry): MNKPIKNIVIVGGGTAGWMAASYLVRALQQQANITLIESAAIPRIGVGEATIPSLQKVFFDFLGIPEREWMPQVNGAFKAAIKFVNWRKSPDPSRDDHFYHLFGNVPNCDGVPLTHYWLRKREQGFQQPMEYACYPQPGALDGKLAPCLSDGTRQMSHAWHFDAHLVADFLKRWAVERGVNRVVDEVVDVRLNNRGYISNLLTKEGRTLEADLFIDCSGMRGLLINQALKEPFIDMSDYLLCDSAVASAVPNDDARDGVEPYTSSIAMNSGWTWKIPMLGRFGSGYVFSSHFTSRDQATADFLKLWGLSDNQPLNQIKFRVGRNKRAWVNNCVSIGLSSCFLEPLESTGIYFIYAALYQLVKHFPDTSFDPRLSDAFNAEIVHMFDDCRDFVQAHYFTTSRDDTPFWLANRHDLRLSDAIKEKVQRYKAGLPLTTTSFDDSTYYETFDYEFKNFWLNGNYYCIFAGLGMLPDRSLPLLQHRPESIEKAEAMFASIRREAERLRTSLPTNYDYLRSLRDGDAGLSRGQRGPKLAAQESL

[7] = molecular target: T1, Thal (tryptophan 6-halogenase); assay: X-ray crystal structure, […] Å; format: binding; conditions: apo crystals soaked, 2 days, 25 °C; tryptophan site
[8] = molecular target: T5, (Pseudomonas fluorescens, UniProt P95480); assay: multiple turnover halogenation; format: biochemical
T5 construct: gene prnA; construct and source details not given
T5 sequence (P95480 whole entry): as above

T1 sequence (A1E280 whole entry): as the sequence (A1E280 whole entry K79T) above, with T79K counted along it

SMILES: Nc1ncnc2c1ncn2[C@@H]1O[C@H](COP(=O)(O)O)[C@@H](O)[C@H]1O [AMP]
- X-ray crystal structure, 1.91 Å ([1]; flavin site crystal, AMP not added to the soak): Thal:FAD:AMP (PDB code 7CU1) were solved with two protomers per asymmetric unit (asu).

SMILES: Cc1cc2c(cc1C)N(C[C@H](O)[C@H](O)[C@H](O)COP(=O)(O)OP(=O)(O)OC[C@H]1O[C@@H](n3cnc4c(N)ncnc43)[C@H](O)[C@@H]1O)c1[nH]c(=O)[nH]c(=O)c1N2 [FADH^−]
- stopped-flow absorbance at 380 and 450 nm, C4a-hydroperoxyflavin formation [2]: These data indicate that Lys79Thr could still form C4aOOH-FAD
- X-ray crystal structure, 2.40 Å [3]: Clear electron density for FADH^− was observed in both protomers.

SMILES: Cc1cc2nc3c(=O)[nH]c(=O)nc-3n(C[C@H](O)[C@H](O)[C@H](O)COP(=O)(O)OP(=O)(O)OC[C@H]3O[C@@H](n4cnc5c(N)ncnc54)[C@H](O)[C@@H]3O)c2cc1C [FAD]
- X-ray crystal structure, 1.91 Å ([1]; flavin site): Thal:FAD:AMP (PDB code 7CU1) were solved with two protomers per asymmetric unit (asu).

SMILES: I [I^−]
- Kd [4]: 64 ± 21 µM
- stopped-flow fluorescence, C4a-hydroxyflavin formation [5]: PrnA and PyrH could also react with I^− to form HOI and C4aOH-FAD
- stopped-flow fluorescence, C4a-hydroxyflavin formation [6]: PrnA and PyrH could also react with I^− to form HOI and C4aOH-FAD

SMILES: N[C@@H](Cc1c[nH]c2ccccc12)C(=O)O [tryptophan]
- X-ray crystal structure, 1.95 Å [7]: we solved the structure of the Thal:TRP complex (PBD code 7CU0
- multiple turnover halogenation [8]: multiple turnover reactions of Thal were carried out and compared with the reactions of PrnA

Source: PMC7948982, “Dissecting the low catalytic capability of flavin-dependent halogenases” (The Journal of Biological Chemistry, 2020)
